Results published in PubChem BioAssay AID248 (DTP/NCI, 2004).
Values joined by “and” are separate entries in the source; they are usually repeats but may differ in a detail not shown here. Equal entries are not always repeated. Inconclusive results and toxic doses are left out. Cut-off read from the data, not from the text of the source: active = T/C of 150% or more; inactive = T/C below 125%.

Test system: L1210 leukemia ip in BDF1 mice, survival T/C
Test: NCI In Vivo Anticancer Drug Screen. Data for tumor model L1210 Leukemia (intraperitoneal) in B6D2F1 (BDF1) mice
Conditions: endpoint: mean survival time, higher = longer survival
Method in brief: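 Mice bearing the transplanted tumor received compound or vehicle. Survival of the treated group was divided by that of the vehicle-treated control group to give the ratio.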

[1] = dose: 100.0 mg/kg/injection, schedule: Q01DX009 (ip), vehicle: saline with Tween-80
[2] = dose: 100.0 mg/kg/injection, schedule: Q04DX002 (ip), vehicle: saline with Tween-80
[3] = dose: 200.0 mg/kg/injection, schedule: Q01DX009 (ip), vehicle: saline with Tween-80
[4] = dose: 200.0 mg/kg/injection, schedule: Q04DX002 (ip), vehicle: saline with Tween-80
[5] = dose: 400.0 mg/kg/injection, schedule: Q01DX009 (ip), vehicle: saline with Tween-80
[6] = dose: 50.0 mg/kg/injection, schedule: Q01DX009 (ip), vehicle: Klucel (hydroxypropylcellulose) (HPC)
[7] = dose: 100.0 mg/kg/injection, schedule: Q01DX009 (ip), vehicle: Klucel (hydroxypropylcellulose) (HPC)
[8] = dose: 100.0 mg/kg/injection, schedule: Q04DX003 (ip), vehicle: Klucel (hydroxypropylcellulose) (HPC)
[9] = dose: 200.0 mg/kg/injection, schedule: Q04DX003 (ip), vehicle: Klucel (hydroxypropylcellulose) (HPC)
[10] = dose: 400.0 mg/kg/injection, schedule: Q04DX003 (ip), vehicle: Klucel (hydroxypropylcellulose) (HPC)
[11] = dose: 50.0 mg/kg/injection, schedule: Q01DX009 (ip), vehicle: saline
[12] = dose: 100.0 mg/kg/injection, schedule: Q01DX009 (ip), vehicle: saline
[13] = dose: 200.0 mg/kg/injection, schedule: Q01DX009 (ip), vehicle: Klucel (hydroxypropylcellulose) (HPC)
[14] = dose: 100.0 mg/kg/injection, schedule: Q04DX002 (ip), vehicle: Klucel (hydroxypropylcellulose) (HPC)
[15] = dose: 200.0 mg/kg/injection, schedule: Q04DX002 (ip), vehicle: Klucel (hydroxypropylcellulose) (HPC)
[16] = dose: 400.0 mg/kg/injection, schedule: Q04DX002 (ip), vehicle: Klucel (hydroxypropylcellulose) (HPC)
[17] = dose: 25.0 mg/kg/injection, schedule: Q01DX009 (ip), vehicle: saline

Measured: T/C

Cc1ccccc1C(C)(O)c1cnc(C)n1Cc1ccccc1 (centres undefined)
inactive: [1] 94 % of control and 98 % of control | [2] 97 % of control and 103 % of control | [3] 95 % of control and 103 % of control | [4] 97 % of control and 100 % of control | [5] 98 % of control and 100 % of control | dose: 400.0 mg/kg/injection, schedule: Q04DX002 (ip), vehicle: saline with Tween-80 95 % of control and 101 % of control

CN1/C(=C/C=N/NC(N)=S)C(C)(C)c2ccccc21
inactive: dose: 100.0 mg/kg/injection, schedule: Q01DX001 (ip), vehicle: carboxymethylcellulose (CMC) 102 % of control | dose: 200.0 mg/kg/injection, schedule: Q01DX001 (ip), vehicle: carboxymethylcellulose (CMC) 98 % of control | dose: 400.0 mg/kg/injection, schedule: Q01DX001 (ip), vehicle: carboxymethylcellulose (CMC) 98 % of control

O=C(Nc1ccccc1C(F)(F)F)OCCSc1ccc(Cl)cc1
inactive: [1] 95 % of control | [3] 95 % of control | [5] 93 % of control

[Cl][Rh][Cl].[NH-]c1nccs1.[NH-]c1nccs1.[NH-]c1nccs1.[NH-]c1nccs1
inactive: dose: 3.13 mg/kg/injection, schedule: Q04DX003 (ip), vehicle: distilled water + Tween-80 103 % of control | dose: 6.25 mg/kg/injection, schedule: Q04DX003 (ip), vehicle: distilled water + Tween-80 96 % of control | dose: 12.5 mg/kg/injection, schedule: Q04DX003 (ip), vehicle: distilled water + Tween-80 97 % of control | dose: 25.0 mg/kg/injection, schedule: Q04DX003 (ip), vehicle: distilled water + Tween-80 96 % of control | dose: 50.0 mg/kg/injection, schedule: Q04DX003 (ip), vehicle: distilled water + Tween-80 103 % of control | dose: 100.0 mg/kg/injection, schedule: Q04DX003 (ip), vehicle: distilled water + Tween-80 102 % of control | dose: 200.0 mg/kg/injection, schedule: Q04DX003 (ip), vehicle: distilled water + Tween-80 103 % of control

CCOC(=O)c1cc(C=O)oc1C
inactive: dose: 25.0 mg/kg/injection, schedule: Q01DX009 (ip), vehicle: Klucel (hydroxypropylcellulose) (HPC) 91 % of control | [6] 97 % of control | [7] 103 % of control | [8] 95 % of control | [9] 93 % of control | [10] 90 % of control

CCCCCCCC(=O)N(CC)CC
inactive: dose: 25.0 mg/kg/injection, schedule: Q04DX002 (ip), vehicle: saline 103 % of control | [11] 97 % of control | dose: 50.0 mg/kg/injection, schedule: Q04DX002 (ip), vehicle: saline 103 % of control | [12] 101 % of control | dose: 100.0 mg/kg/injection, schedule: Q04DX002 (ip), vehicle: saline 100 % of control | dose: 200.0 mg/kg/injection, schedule: Q04DX002 (ip), vehicle: saline 100 % of control and 102 % of control | dose: 400.0 mg/kg/injection, schedule: Q04DX002 (ip), vehicle: saline 102 % of control

COc1cc([N+](=O)[O-])ccc1NC(=O)N(Cc1ccccc1)c1ccccc1
inactive: [7] 98 % of control | [13] 93 % of control | dose: 400.0 mg/kg/injection, schedule: Q01DX009 (ip), vehicle: Klucel (hydroxypropylcellulose) (HPC) 91 % of control

Oc1ccccc1CNc1ccccc1
inactive: [8] 96 % of control | [9] 94 % of control | [10] 96 % of control

OC1(c2ccccc2)c2ccccc2C(O)(c2ccccc2)c2cc3c(cc21)CCCC3 (centres undefined)
inactive: [14] 102 % of control | [15] 91 % of control | [16] 91 % of control

CCOC(=O)CCCCCC(C)=O
inactive: dose: 100.0 mg/kg/injection, schedule: Q04DX003 (ip), vehicle: acetone 103 % of control | dose: 200.0 mg/kg/injection, schedule: Q04DX003 (ip), vehicle: acetone 100 % of control | dose: 400.0 mg/kg/injection, schedule: Q04DX003 (ip), vehicle: acetone 95 % of control

O=C(Nc1cccc(Cl)c1)Oc1ccc(Cl)cc1Cc1ccccc1
inactive: dose: 100.0 mg/kg/injection, schedule: Q01DX009 (ip), vehicle: carboxymethylcellulose (CMC) 95 % of control and 91 % of control | [14] 121 % of control | dose: 100.0 mg/kg/injection, schedule: Q04DX002 (ip), vehicle: carboxymethylcellulose (CMC) 100 % of control | dose: 100.0 mg/kg/injection, schedule: Q04DX003 (ip), vehicle: carboxymethylcellulose (CMC) 94 % of control | dose: 200.0 mg/kg/injection, schedule: Q01DX009 (ip), vehicle: carboxymethylcellulose (CMC) 95 % of control and 97 % of control | [15] 102 % of control | dose: 200.0 mg/kg/injection, schedule: Q04DX002 (ip), vehicle: carboxymethylcellulose (CMC) 97 % of control and 107 % of control | dose: 200.0 mg/kg/injection, schedule: Q04DX003 (ip), vehicle: carboxymethylcellulose (CMC) 97 % of control | dose: 400.0 mg/kg/injection, schedule: Q01DX009 (ip), vehicle: carboxymethylcellulose (CMC) 93 % of control and 97 % of control | [16] 97 % of control | dose: 400.0 mg/kg/injection, schedule: Q04DX002 (ip), vehicle: carboxymethylcellulose (CMC) 98 % of control and 100 % of control | dose: 400.0 mg/kg/injection, schedule: Q04DX003 (ip), vehicle: carboxymethylcellulose (CMC) 94 % of control

N/C(N=P(c1ccccc1)(c1ccccc1)c1ccccc1)=N\S(=O)(=O)c1ccc([N+](=O)[O-])cc1
inactive: dose: 25.0 mg/kg/injection, schedule: Q04DX002 (ip), vehicle: Klucel (hydroxypropylcellulose) (HPC) 104 % of control | dose: 50.0 mg/kg/injection, schedule: Q04DX002 (ip), vehicle: Klucel (hydroxypropylcellulose) (HPC) 111 % of control | [14] 96 % of control

CCCCCP(=O)(CCCCC)CCCCC
inactive: dose: 25.0 mg/kg/injection, schedule: Q04DX002 (ip), vehicle: saline with Tween-80 100 % of control | dose: 50.0 mg/kg/injection, schedule: Q04DX002 (ip), vehicle: saline with Tween-80 94 % of control | [2] 98 % of control and 106 % of control

NC1=NNC(N)=NN1
inactive: dose: 12.5 mg/kg/injection, schedule: Q01DX009 (ip), vehicle: saline 93 % of control | [17] 101 % of control | [11] 100 % of control and 107 % of control | [12] 92 % of control

COc1ccc([P+](=S)SS[P+](=S)c2ccc(OC)cc2)cc1 (centres undefined)
inactive: [2] 101 % of control | [4] 97 % of control

[Co].[NH-]CC[N-]CCO.[NH-]CC[N-]CCO
inactive: [17] 100 % of control | [11] 102 % of control | dose: 50.0 mg/kg/injection, schedule: Q04DX003 (ip), vehicle: saline 108 % of control | dose: 100.0 mg/kg/injection, schedule: Q04DX003 (ip), vehicle: saline 105 % of control

NC(N)=NCC(=O)O
inactive: dose: 75.0 mg/kg/injection, schedule: Q01DX001 (ip), vehicle: saline with Tween-80 105 % of control | dose: 150.0 mg/kg/injection, schedule: Q01DX001 (ip), vehicle: saline with Tween-80 100 % of control | dose: 300.0 mg/kg/injection, schedule: Q01DX001 (ip), vehicle: saline with Tween-80 102 % of control

CSc1ncnc2c1ncn2/N=C/C1OC(C)OCC1O (centres undefined)
inactive: [8] 93 % of control | [9] 98 % of control | [10] 98 % of control

On1nc(-c2ccccc2)c(-c2c(-c3ccccc3)nn(O)c2-c2ccccc2)c1-c1ccccc1
inactive: [6] 90 % of control | [7] 90 % of control | [13] 97 % of control

Br/C1=C/CCCCCC1
inactive: dose: 75.0 mg/kg/injection, schedule: Q04DX003 (ip), vehicle: saline 102 % of control | dose: 150.0 mg/kg/injection, schedule: Q04DX003 (ip), vehicle: saline 96 % of control

CC(=O)C(C)[P+](c1ccccc1)(c1ccccc1)c1ccccc1 (centres undefined)
inactive: dose: 6.25 mg/kg/injection, schedule: Q01DX009 (ip), vehicle: water 104 % of control | dose: 12.5 mg/kg/injection, schedule: Q01DX009 (ip), vehicle: water 95 % of control | dose: 12.5 mg/kg/injection, schedule: Q04DX003 (ip), vehicle: water 102 % of control | dose: 25.0 mg/kg/injection, schedule: Q01DX009 (ip), vehicle: water 102 % of control | dose: 25.0 mg/kg/injection, schedule: Q04DX003 (ip), vehicle: water 100 % of control | dose: 50.0 mg/kg/injection, schedule: Q01DX009 (ip), vehicle: water 96 % of control
